Source: publication PMC3461044, “Probing Protein Sequences as Sources for Encrypted Antimicrobial Peptides” (PLoS ONE, 2012)

Columns and labels:
[1] = system: Phakopsora pachyrhizi; assay: Asian rust tolerance assay of transformed soybean plants; type: in vivo, Phakopsora pachyrhizi on Glycine max; conditions: sprayed with 10^6 spores/mL, 15 days, control plants 45±8
Method: The gene encoding the peptide gb|ABM17058.1|(213–231), primary structure […], was synthesized by Epoch Life Science Inc. (Sugar Land, TX, USA) and cloned into the vector pBluKSPOXDCAHAS replacing the oxdc gene. The vector was used to transform soybean plants as previously described, [31]. Six intragenic soybean lines were tested for tolerance to Asian rust (Phakopsora pachyrhizi). The plants (20 plants per line at V3 stage) were sprayed with a spore suspension (10^6 spores/mL) and maintained in the greenhouse at room temperature and sprinkling 4 times a day. Leaves were photographed after 15 days and the number of pustules per square centimeter counted.

[2] = system: Xanthomonas axonopodis pv. glycines; conditions: in vitro growth
Method: MICs were determined using the M7-A6 protocol from the Clinical Laboratory Standards Institute (CLSI). […] Initial bacterium inoculum of ∼10^5 colony forming units/mL were transferred, along with serial 2-fold dilutions of each peptide to 96-well plates and incubated for 12 h. […] For each peptide concentration, optical density (OD600) readings were subtracted from that of the growth medium and divided by the positive control (100% bacterial growth). Inhibitory assays for X. axonopodis pv. glycines were conducted by the same methodology with longer incubation time (48 h).

[3] = system: Phakopsora pachyrhizi spores; assay: In situ germination inhibition of Phakopsora pachyrhizi spores on Glycine max leaves' surface; type: cell-based; conditions: 8 µg/mL (3 µM) peptide co-incubated with 3.5×10^5/ml spores on G. max leaf disks, 7 days, 21°C; average of three experiments
Method: P. pachyrhizi spores were scraped off infected G. max leaves and were frozen at −80°C. Prior to the in situ assay, spores were dissolved in Mili-Q® water, incubated at 40°C for 40 min and quantified using a Neubauer chamber. […]. BR-16). Spores were then co-incubated with fifty microliters of a peptide solution at concentrations ranging from 8 to 128 µg/mL. Leaves were immediately placed on a Petri dish containing moist filter papers and incubated at 21°C under 12 h-photoperiod and photographed after 7 days. Images were used to measure the infected area using the QUANT v1.0.1 software.

Sequence	number of uredia per foliar area ([1]; transformed G. max lineage 72.14.5, V3 stage) [pustules/cm^2]	number of uredia per foliar area ([1]; transformed G. max lineage 72.14.9, V3 stage) [pustules/cm^2]	concentration that inhibited the in vitro growth of X. axonopodis pv. glycines [2] [µM]	infected area [3]
MIKAFKEATKVDKVVVLWTA [gb|ABM17058.1|(213–231), IAP, fragment of G. max D-myo-inositol 3-phosphate synthase; expressed in transformed soybean lineages 72.14.5 and 72.14.9]	7±3	12±3		
RWRFLRKISSVHMFSVKALDDFRQL [Gm0025x00667(75–100), novel IAP, fragment of the G. max enzyme flavonoid 3-hydroxylase]			5	approximately 50 % of the control
